Laboratory results taken from PubChem BioAssay (NCI).
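A five-concentration, 48-hour dose response in 96-well plates underlies each endpoint, interpolated linearly between surrounding concentrations. TGI denotes the concentration required for complete inhibition of growth.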

Experiments:
Assay in all cases: NCI tumour cell line growth inhibition, 48 h
MCF7 breast = system: MCF7 breast
SN12K1 renal = system: SN12K1 renal
OVCAR-3 ovarian = system: OVCAR-3 ovarian
RXF 393 renal = system: RXF 393 renal
P388 leukemia = system: P388 leukemia
XF 498 CNS = system: XF 498 CNS
NCI-H226 lung = system: NCI-H226 lung
SK-MEL-28 melanoma = system: SK-MEL-28 melanoma
SF-268 CNS = system: SF-268 CNS
NCI/ADR-RES ovarian = system: NCI/ADR-RES ovarian
HOP-18 NSCLC = system: HOP-18 NSCLC
P388/ADR leukemia = system: P388/ADR leukemia
DMS 273 small cell lung = system: DMS 273 small cell lung
SR leukemia = system: SR leukemia
TK-10 renal = system: TK-10 renal
ACHN renal = system: ACHN renal
LOX IMVI melanoma = system: LOX IMVI melanoma
LXFL 529 NSCLC = system: LXFL 529 NSCLC
OVCAR-5 ovarian = system: OVCAR-5 ovarian
NCI-H460 lung = system: NCI-H460 lung

| Compound | TGI (MCF7 breast) [µM] | TGI (SN12K1 renal) [µM] | TGI (OVCAR-3 ovarian) [µM] | TGI (RXF 393 renal) [µM] | TGI (P388 leukemia) [µM] | TGI (XF 498 CNS) [µM] | TGI (NCI-H226 lung) [µM] | TGI (SK-MEL-28 melanoma) [µM] | TGI (SF-268 CNS) [µM] | TGI (NCI/ADR-RES ovarian) [µM] | TGI (HOP-18 NSCLC) [µM] | TGI (P388/ADR leukemia) [µM] | TGI (DMS 273 small cell lung) [µM] | TGI (SR leukemia) [µM] | TGI (TK-10 renal) [µM] | TGI (ACHN renal) [µM] | TGI (LOX IMVI melanoma) [µM] | TGI (LXFL 529 NSCLC) [µM] | TGI (OVCAR-5 ovarian) [µM] | TGI (NCI-H460 lung) [µM] |
| --- | --- | --- | --- | --- | --- | --- | --- | --- | --- | --- | --- | --- | --- | --- | --- | --- | --- | --- | --- | --- |
| COC(=O)c1nc(-c2ccc3c(n2)C(=O)C(N)=C(OC)C3=O)c(N)c(-c2ccc(OC)c(OC)c2O)c1C | 1.66 | 3.38 | 1.66 | 3.55 | 3.74 | 2.85 | 1.41 | 2.77 | 5.25 | 3.09 | 17.8 | 3.17 | 1.46 |  |  |  |  |  |  |  |
| O=C1c2ccccc2C(=O)c2c1ccc1c2N=C(c2ccc(F)cc2)CC(c2ccc(Cl)c(Cl)c2)N1 (stereo not given) |  |  |  |  |  |  | 65.6 | 36 | 32.1 |  |  |  |  | 54.4 | 34 | 27.8 | 18.3 | 30 | 28 | 43 |
| C[C@@H]1C[C@]2(C[C@@H](C)[C@H]3C(C[C@@]4(C)CCC[C@@H]5C6=C[C@H](CCC34C)OC6=CC(=O)OC5(C)C)O2)OC1=O (stereo not given in full) | > 51.5 | > 51.5 | > 51.5 |  | > 51.5 | > 51.5 |  |  |  | > 51.5 | > 51.5 | > 51.5 | > 51.5 |  |  |  | > 51.5 |  | > 51.5 | > 51.5 |
